Source: patent publication US11643421B2, “Process for the preparation of tricyclic PI3K inhibitor compounds and methods for using the same for the treatment of cancer” (priority 2015, dated 2023)
Read-outs that look alike come from different tables or passages of the source.

Columns and labels:
[1] = Phase I dose-escalation study, plasma pharmacokinetics; type: in vivo, human; details: for concentration at 15 day: read-out: Cmin (μM), Mean; for AUC(0-t): read-out: AUC0-24 (μM*hr), Mean; for AUC(0-inf): read-out: AUCinf (μM*hr), Mean
Protocol: Plasma samples for pharmacokinetic (“PK”) analysis were collected on day 1 and day 8 or day 15 of cycle 1. Fluorodeoxyglucose positron emission tomography (“FDG-PET”) was performed at baseline and on-treatment.
Dosing times may have been adjusted to accommodate for time shifts from the home administration schedule (e.g., for clinic visits with PK sampling or traveling), but times were to be adjusted by no more than 4 hours at a time.
For administration under fasted conditions, patients fasted overnight for at least 8 hours before dosing and 2 hours after dosing.
For Cohorts 1-6 (2-30 mg), the single dose on Cycle 1, Day 1 was followed by a 7 day washout-period, after which continuous once daily dosing, for 28 consecutive days, was started on Day 8. Blood samples for Cohorts 1-6 were collected on Day 15 for PK analysis.
All plasma concentration-time data collected in Cycle 1 were analyzed using WinNonlin® (Version 6.4, Pharsight Corp, Mountain View, Calif.) to estimate PK parameters, which included but were not limited to AUC0-last (where AUC refers to the area under the concentration-time curve) and/or AUCinf, Cmax, Cmin, tmax, half-life, CL/F, and accumulation ratio. Estimates for each PK parameter and summary statistics (mean, standard deviation, coefficient of variation, median, minimum, and maximum) were tabulated by dose level and schedule. Nominal time data were used in the analysis, and the linear up/log down trapezoidal method was used for calculating AUC.

AKT1 = AKT1 (Homo sapiens, UniProt P31749); experiment: biochemical; details: read-out: % inhib
[2] = Phase I study, brain tumor and brain tissue concentration; type: in vivo, human; details: concentration from brain tumor tissue, patients
[3] = MALDI imaging of brain distribution, GS2 orthotopic model; type: in vivo, female nude mice; details: 15 mg/kg PO, 1 hour post dose
Protocol: Mice were euthanized at 1 and 6 hours post-dose via exsanguination by perfusion under anesthesia. Brains were excised, flash frozen in liquid N2 and stored in a −80° C. freezer until analyzed. Fresh frozen tissue sections were obtained on a cryomicrotome (Leica CM3050S, Buffalo Grove, Ill.) at 12 μm thickness and thaw-mounted onto indium tin oxide coated glass slides (Bruker Daltonics, Billerica, Mass.). Tissue sections were an analyzed by imaging MALDI MS, providing signal intensities (and not absolute quantitation), followed by cresyl violet staining for histological interrogation.
For MALDI MAS analysis, a 40 mg/mL solution of 2,5-dihydroxybenzoic acid (Sigma-Aldrich, St. Louis, Mo.) was prepared in methanol:water (70:30 v/v). […] Matrix solution was homogenously spray-coated onto the tissue using a HTX TM-Sprayer (HTX technologies. Chapel Hill, N.C.). Matrix-coated tissue sections were transferred to the MALDI mass spectrometer (SolariX 7T FT-ICR, Bruker Daltonics, Bremen, Germany) for imaging analysis. […] Laser intensity and number of shots were optimized for sensitivity of the parent drug (1200 shots) with ion detection collected over the mass range of m/z 150-3000.
Following completion of the imaging experiments, matrix coaling was removed by rinsing the glass slide in 100% methanol for 30 seconds or until the entire matrix was visibly removed. […]

NEK7 = NEK7 (Homo sapiens, UniProt Q8TDX7); experiment: biochemical; details: read-out: % inhib
[4] = human, plasma, oral, 2 mg once daily, multiple doses, Cycle 1 Day 15
[5] = human, plasma, oral, 4 mg once daily, multiple doses, Cycle 1 Day 15
[6] = human, plasma, oral, 8 mg once daily, multiple doses, Cycle 1 Day 15
[7] = human, plasma, oral, 15 mg once daily, multiple doses, Cycle 1 Day 15
[8] = human, plasma, oral, 20 mg once daily, multiple doses, Cycle 1 Day 15
[9] = human, plasma, oral, 45 mg once daily, multiple doses, Cycle 1 Day 8
[10] = human, plasma, oral, 65 mg once daily, multiple doses, Cycle 1 Day 8
[11] = human, plasma, 2 mg single oral dose, Cycle 1 Day 1
[12] = human, plasma, 4 mg single oral dose, Cycle 1 Day 1
[13] = human, plasma, 8 mg single oral dose, Cycle 1 Day 1
[14] = human, plasma, 15 mg single oral dose, Cycle 1 Day 1
[15] = human, plasma, 20 mg single oral dose, Cycle 1 Day 1
[16] = human, plasma, 30 mg single oral dose, Cycle 1 Day 1
[17] = human, plasma, 45 mg single oral dose, Cycle 1 Day 1
[18] = human, plasma, 65 mg single oral dose, Cycle 1 Day 1

Sequence of AKT1 (P31749 whole entry, species assumed): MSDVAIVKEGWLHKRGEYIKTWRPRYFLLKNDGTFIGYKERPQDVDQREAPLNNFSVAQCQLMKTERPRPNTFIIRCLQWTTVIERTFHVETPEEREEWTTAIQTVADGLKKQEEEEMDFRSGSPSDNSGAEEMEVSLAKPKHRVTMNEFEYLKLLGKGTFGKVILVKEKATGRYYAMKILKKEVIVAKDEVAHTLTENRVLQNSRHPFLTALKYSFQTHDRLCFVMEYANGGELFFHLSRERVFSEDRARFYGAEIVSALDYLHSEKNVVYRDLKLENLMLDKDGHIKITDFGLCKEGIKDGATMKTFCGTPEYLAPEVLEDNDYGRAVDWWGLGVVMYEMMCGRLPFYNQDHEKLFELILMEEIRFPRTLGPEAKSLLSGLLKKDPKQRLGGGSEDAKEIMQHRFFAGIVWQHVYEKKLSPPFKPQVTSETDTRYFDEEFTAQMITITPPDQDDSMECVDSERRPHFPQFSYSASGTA
Sequence of NEK7 (Q8TDX7 whole entry): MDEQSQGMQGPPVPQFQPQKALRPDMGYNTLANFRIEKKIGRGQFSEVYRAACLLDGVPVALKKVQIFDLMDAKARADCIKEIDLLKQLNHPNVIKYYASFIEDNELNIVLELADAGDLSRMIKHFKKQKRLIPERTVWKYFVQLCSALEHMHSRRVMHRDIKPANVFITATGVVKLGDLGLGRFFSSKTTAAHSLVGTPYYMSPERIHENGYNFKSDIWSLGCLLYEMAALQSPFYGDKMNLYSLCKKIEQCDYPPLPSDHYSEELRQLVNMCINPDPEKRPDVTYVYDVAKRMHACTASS

Compound: CC1(C)OCCn2c1nc1c(N3CCOCC3)nc(-c3cnc(N)nc3)nc12 [GDC-0084, 5-(6,6-dimethyl-4-morpholino-8,9-dihydro-6H-[1,4]oxazino[3,4-e]purin-2-yl)pyrimidin-2-amine]
- concentration at 15 day ([1]; 4 mg once daily, multiple doses, Cycle 1 Day 15): 0.0207 µM
- CL/F (L/hr), Mean ([1]; 4 mg single oral dose, Cycle 1 Day 1): 4.87 L/h
- concentration at 15 day ([1]; 8 mg once daily, multiple doses, Cycle 1 Day 15): 0.0301 µM
- CL/F (L/hr), Mean ([1]; 8 mg single oral dose, Cycle 1 Day 1): 12.4 L/h
- concentration at 15 day ([1]; 15 mg once daily, multiple doses, Cycle 1 Day 15): 0.0581 µM
- concentration at 15 day ([1]; 20 mg once daily, multiple doses, Cycle 1 Day 15): 0.0635 µM
- CL/F (L/hr), Mean ([1]; 20 mg single oral dose, Cycle 1 Day 1): 7.92 L/h
- concentration at 15 day ([1]; 30 mg once daily, multiple doses, Cycle 1 Day 15): 0.155 µM
- CL/F (L/hr), Mean ([1]; 30 mg single oral dose, Cycle 1 Day 1): 8.22 L/h
- concentration at 15 day ([1]; 45 mg once daily, multiple doses, Cycle 1 Day 8): 0.206 µM
- concentration at 15 day ([1]; 65 mg once daily, multiple doses, Cycle 1 Day 8): 0.271 µM
- half-life ([1]; human, plasma, oral, across Cohorts 1-6 (2 to 30 mg), single dose, read-out: apparent terminal phase t1/2 (converted)): ~18.7 h
- Cmax [1, 4]: 0.0331 µM
- AUC(0-t) [1, 4]: 0.346 µM·h
- concentration at 15 day [1, 4]: 0.00877 µM
- Tmax ([1]; human, plasma, oral, 2 mg once daily, multiple doses, Cycle 1 Day 15, read-out: Tmax (hr), Median): 2 h
- Cmax [1, 5]: 0.593 µM
- AUC(0-t) [1, 5]: 0.833 µM·h
- Tmax ([1]; human, plasma, oral, 4 mg once daily, multiple doses, Cycle 1 Day 15, read-out: Tmax (hr), Median): 2 h
- Cmax [1, 6]: 0.0883 µM
- AUC(0-t) [1, 6]: 1.16 µM·h
- Tmax ([1]; human, plasma, oral, 8 mg once daily, multiple doses, Cycle 1 Day 15, read-out: Tmax (hr), Median): 2.5 h
- Cmax [1, 7]: 0.156 µM
- AUC(0-t) [1, 7]: 2.34 µM·h
- Tmax ([1]; human, plasma, oral, 15 mg once daily, multiple doses, Cycle 1 Day 15, read-out: Tmax (hr), Median): 3 h
- Cmax [1, 8]: 0.23 µM
- AUC(0-t) [1, 8]: 2.87 µM·h
- Tmax ([1]; human, plasma, oral, 20 mg once daily, multiple doses, Cycle 1 Day 15, read-out: Tmax (hr), Median): 2 h
- Cmax ([1]; human, plasma, oral, 30 mg once daily, multiple doses, Cycle 1 Day 15): 0.332 µM
- AUC(0-t) ([1]; human, plasma, oral, 30 mg once daily, multiple doses, Cycle 1 Day 15, n = 5): 5.67 µM·h
- Tmax ([1]; human, plasma, oral, 30 mg once daily, multiple doses, Cycle 1 Day 15, read-out: Tmax (hr), Median): 2 h
- Cmax [1, 9]: 0.544 µM
- AUC(0-t) [1, 9]: 8.06 µM·h
- Tmax ([1]; human, plasma, oral, 45 mg once daily, multiple doses, Cycle 1 Day 8, read-out: Tmax (hr), Median): 3.5 h
- Cmax [1, 10]: 0.58 µM
- AUC(0-t) [1, 10]: 9.01 µM·h
- Tmax ([1]; human, plasma, oral, 65 mg once daily, multiple doses, Cycle 1 Day 8, read-out: Tmax (hr), Median): 3 h
- half-life ([1]; human, plasma, po, 2 mg, 2 mg single oral dose, Cycle 1 Day 1, read-out: T1/2 (hr), Mean (converted)): 16.9 h
- half-life ([1]; human, plasma, po, 4 mg, 4 mg single oral dose, Cycle 1 Day 1, read-out: T1/2 (hr), Mean (converted)): 21.8 h
- half-life ([1]; human, plasma, po, 8 mg, 8 mg single oral dose, Cycle 1 Day 1, read-out: T1/2 (hr), Mean (converted)): 18.2 h
- half-life ([1]; human, plasma, po, 15 mg, 15 mg single oral dose, Cycle 1 Day 1, read-out: T1/2 (hr), Mean (converted)): 18.1 h
- half-life ([1]; human, plasma, po, 20 mg, 20 mg single oral dose, Cycle 1 Day 1, read-out: T1/2 (hr), Mean (converted)): 14.8 h
- half-life ([1]; human, plasma, po, 30 mg, 30 mg single oral dose, Cycle 1 Day 1, read-out: T1/2 (hr), Mean (converted)): 22 h
- AUC(0-t) [1, 11]: 0.21 µM·h
- AUC(0-inf) [1, 11]: 0.365 µM·h
- Tmax ([1]; human, plasma, 2 mg single oral dose, Cycle 1 Day 1, read-out: Tmax (hr), Median): 2 h
- Cmax [1, 12]: 0.0359 µM
- AUC(0-t) [1, 12]: 0.435 µM·h
- AUC(0-inf) [1, 12]: 0.833 µM·h
- Tmax ([1]; human, plasma, 4 mg single oral dose, Cycle 1 Day 1, read-out: Tmax (hr), Median): 3 h
- Cmax [1, 13]: 0.0452 µM
- AUC(0-t) [1, 13]: 0.509 µM·h
- AUC(0-inf) [1, 13]: 0.974 µM·h
- Tmax ([1]; human, plasma, 8 mg single oral dose, Cycle 1 Day 1, read-out: Tmax (hr), Median): 3 h
- Cmax [1, 14]: 0.0912 µM
- AUC(0-t) [1, 14]: 1.09 µM·h
- AUC(0-inf) [1, 14]: 1.97 µM·h
- Tmax ([1]; human, plasma, 15 mg single oral dose, Cycle 1 Day 1, read-out: Tmax (hr), Median): 2 h
- Cmax [1, 15]: 0.159 µM
- AUC(0-t) [1, 15]: 1.9 µM·h
- AUC(0-inf) [1, 15]: 2.75 µM·h
- Tmax ([1]; human, plasma, 20 mg single oral dose, Cycle 1 Day 1, read-out: Tmax (hr), Median): 2 h
- Cmax [1, 16]: 0.174 µM
- AUC(0-t) [1, 16]: 2.42 µM·h
- AUC(0-inf) [1, 16]: 5.33 µM·h
- Tmax ([1]; human, plasma, 30 mg single oral dose, Cycle 1 Day 1, read-out: Tmax (hr), Median): 2 h
- Cmax [1, 17]: 0.234 µM
- AUC(0-t) [1, 17]: 3.12 µM·h
- Tmax ([1]; human, plasma, 45 mg single oral dose, Cycle 1 Day 1, read-out: Tmax (hr), Median): 3 h
- Cmax [1, 18]: 0.255 µM
- AUC(0-t) [1, 18]: 4.06 µM·h
- Tmax ([1]; human, plasma, 65 mg single oral dose, Cycle 1 Day 1, read-out: Tmax (hr), Median): 2.5 h
- Tmax ([1]; human, plasma, single oral dose, all cohorts, read-out: median Tmax): ~2 h
- dose proportionality of Cmax and AUC0-24 ([1]; single and multiple doses, 2 mg to 65 mg once daily): approximately linear and dose proportional increase in Cmax and AUC0-24
- inhibition at 1 µM (AKT1): 0.7%
- blood brain barrier crossing and brain distribution [2]: crosses the blood brain barrier and uniformly distributes throughout the brain
- mean pixel intensity (MALDI imaging) ([3]; GS2 tumors): 0.34
- mean pixel intensity (MALDI imaging) ([3]; normal brain of GS2 tumor-bearing mice): 0.55
- inhibition at 1 µM (NEK7): -0.3%
